Results: article PMC6979384, “Characterization of the plant homeodomain (PHD) reader family for their histone tail interactions” (Epigenetics & Chromatin, 2020)
Where no end group is shown, it is not given here. [ ]: non-standard residue; d: D form. Lys(Me3) = C[N+](C)(C)CCCC[C@H](N)C(=O)O

How the values were obtained:
Test in all cases: Histone peptide microarray
Format in all cases: binding, human
Settings in all cases: histone peptide array
MLL5 = test system: MLL5
In short: (§1)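 A peptide microarray holding 293 synthetic histone peptides with individual or combinatorial modifications was probed with each GST-PHD protein at 0.5 μM. Values represent mean intensity (±SD) from four replicates.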

ING2 = test system: ING2
In short: as §1

BPTF (PB) = test system: BPTF (PB)
In short: as §1

DIDO1 = test system: DIDO1
In short: as §1

DPF2 (PPC2W2) = test system: DPF2 (PPC2W2)
In short: as §1

KDM5B (3) = test system: KDM5B (3)
In short: as §1

PHF8 = test system: PHF8
In short: as §1

ING4 = test system: ING4
In short: as §1

ING5 = test system: ING5
In short: as §1

TRIM66 (PB) = test system: TRIM66 (PB)
In short: as §1

AIRE (PP) = test system: AIRE (PP)
In short: as §1

PHF21A = test system: PHF21A
In short: as §1

BAZ2B = test system: BAZ2B
In short: as §1

CHD5 (PPCC) = test system: CHD5 (PPCC)
In short: as §1

PHF2 = test system: PHF2
In short: as §1

KDM5A (1) = test system: KDM5A (1)
In short: as §1

KDM4C (TTP) = test system: KDM4C (TTP)
In short: as §1

KDM5A (3) = test system: KDM5A (3)
In short: as §1

PHF13 = test system: PHF13
In short: as §1

PHRF1 (RP) = test system: PHRF1 (RP)
In short: as §1

PHF23 = test system: PHF23
In short: as §1

ING1 = test system: ING1
In short: as §1

ING3 = test system: ING3
In short: as §1

KDM7A = test system: KDM7A
In short: as §1

TAF3 = test system: TAF3
In short: as §1

CHD5 (PCC) = test system: CHD5 (PCC)
In short: as §1

RAG2 = test system: RAG2
In short: as §1

MORC3 (CW) = test system: MORC3 (CW)
In short: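 GST-PHD reader, 0.5 μM, probed on 293-peptide histone array (single/combinatorial PTMs); optimized array protocol; signal = mean ± SD, n = 4.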

SP140L = test system: SP140L
In short: as §1

KDM5B (1) = test system: KDM5B (1)
In short: as §1

CHD4 (PPCC) = test system: CHD4 (PPCC)
In short: as §1

[1] = sheet "Array Heatmap", GST-tagged reader, total n = 4

H4K12ac + K16ac + K20me1: H4 11-27
Array Heatmap signal, MLL5 (MLL5; GST-tagged MLL5, arrays performed twice, n of 4): 0.5572
Array Heatmap signal, ING2 (ING2; GST-tagged ING2, arrays performed twice, n of 4): 0.5978
Array Heatmap signal, BPTF (PB) (BPTF (PB); GST-tagged BPTF (PB = PHD + Bromodomain), arrays performed twice, n of 4): 0.3283
Array Heatmap signal, DIDO1 (DIDO1; GST-tagged DIDO1, arrays performed twice, n of 4): 0.7187
Array Heatmap signal, DPF2 (PPC2W2) (DPF2 (PPC2W2); GST-tagged DPF2 (PPC2W2 = Dual PHD + C2W2-type Zn-finger), arrays performed twice, n of 4): 0.6625
Array Heatmap signal, KDM5B (3) (KDM5B (3); GST-tagged KDM5B (3), arrays performed twice, n of 4): 0.4151
Array Heatmap signal, PHF8 (PHF8; GST-tagged PHF8, arrays performed twice, n of 4): 0.3408
Array Heatmap signal, ING4 (ING4; GST-tagged ING4, arrays performed twice, n of 4): 0.4334
Array Heatmap signal, ING5 (ING5; GST-tagged ING5, arrays performed twice, n of 4): 0.3345
Array Heatmap signal, TRIM66 (PB) (TRIM66 (PB); GST-tagged TRIM66 (PB = PHD + Bromodomain), arrays performed twice, n of 4): 0.5407
Array Heatmap signal, AIRE (PP) (AIRE (PP); GST-tagged AIRE (PP), arrays performed twice, n of 4): 0.384
Array Heatmap signal, PHF21A (PHF21A; GST-tagged PHF21A, arrays performed twice, n of 4): 0.4255
Array Heatmap signal, BAZ2B (BAZ2B; GST-tagged BAZ2B, arrays performed twice, n of 4): 0.4211
Array Heatmap signal, CHD5 (PPCC) (CHD5 (PPCC); GST-tagged CHD5 (PPCC = Dual PHD + Dual Chromodomain), arrays performed twice, n of 4): 0.5143
Array Heatmap signal, PHF2 (PHF2; GST-tagged PHF2, arrays performed twice, n of 4): 0.5516
Array Heatmap signal, KDM5A (1) (KDM5A (1); GST-tagged KDM5A (1), arrays performed twice, n of 4): 0.4176
Array Heatmap signal, KDM4C (TTP) (KDM4C (TTP); GST-tagged KDM4C (TTP = Tandem Tudor domain + PHD), arrays performed twice, n of 4): 0.4269
Array Heatmap signal, KDM5A (3) (KDM5A (3); GST-tagged KDM5A (3), arrays performed twice, n of 4): 0.4519
Array Heatmap signal, PHF13 (PHF13; GST-tagged PHF13, arrays performed twice, n of 4): 0.5671
Array Heatmap signal, PHRF1 (RP) (PHRF1 (RP); GST-tagged PHRF1 (RP), arrays performed twice, n of 4): 0.4296
Array Heatmap signal, PHF23 (PHF23; GST-tagged PHF23, arrays performed twice, n of 4): 0.5291
Array Heatmap signal, ING1 (ING1; GST-tagged ING1, arrays performed twice, n of 4): 0.5716
Array Heatmap signal, ING3 (ING3; GST-tagged ING3, arrays performed twice, n of 4): 0.451
Array Heatmap signal, KDM7A (KDM7A; GST-tagged KDM7A, arrays performed twice, n of 4): 0.3032
Array Heatmap signal, TAF3 (TAF3; GST-tagged TAF3, arrays performed twice, n of 4): 0.2511
Array Heatmap signal, CHD5 (PCC) (CHD5 (PCC); GST-tagged CHD5 (PCC = PHD + Dual Chromodomain), arrays performed twice, n of 4): 0.6765
Array Heatmap signal, RAG2 (RAG2; GST-tagged RAG2, arrays performed twice, n of 4): 0.2293
Array Heatmap signal, MORC3 (CW) (MORC3 (CW); GST-tagged MORC3 (CW = CW-type Zn-finger), arrays performed twice, n of 4): 0.3309
Array Heatmap signal, SP140L (SP140L; GST-tagged SP140L, arrays performed twice, n of 4): 0.3459
Array Heatmap signal, KDM5B (1) (KDM5B (1); GST-tagged KDM5B (1), arrays performed twice, n of 4): 0.5461
Array Heatmap signal, CHD4 (PPCC) (CHD4 (PPCC); GST-tagged CHD4 (PPCC = Dual PHD + Dual Chromodomain), arrays performed twice, n of 4): 0.5474

H3K79me3: H3 74-84 (IAQDF[Lys(Me3)]TDLRF; UniProt P68431 75-85, looked up, fragment) [Peptide H3K79me3]
Array Heatmap signal, MLL5 (MLL5; [1]): 0.5385
Array Heatmap signal, ING2 (ING2; [1]): 0.6086
Array Heatmap signal, BPTF (PB) (BPTF (PB); [1]): 0.3567
Array Heatmap signal, DIDO1 (DIDO1; [1]): 0.7358
Array Heatmap signal, DPF2 (PPC2W2) (DPF2 (PPC2W2); [1]): 0.6998
Array Heatmap signal, KDM5B (3) (KDM5B (3); [1]): 0.4402
Array Heatmap signal, PHF8 (PHF8; [1]): 0.3681
Array Heatmap signal, ING4 (ING4; [1]): 0.4605
Array Heatmap signal, ING5 (ING5; [1]): 0.3656
Array Heatmap signal, TRIM66 (PB) (TRIM66 (PB); [1]): 0.557
Array Heatmap signal, AIRE (PP) (AIRE (PP); [1]): 0.4525
Array Heatmap signal, PHF21A (PHF21A; [1]): 0.4782
Array Heatmap signal, BAZ2B (BAZ2B; [1]): 0.458
Array Heatmap signal, CHD5 (PPCC) (CHD5 (PPCC); [1]): 0.5544
Array Heatmap signal, PHF2 (PHF2; [1]): 0.5812
Array Heatmap signal, KDM5A (1) (KDM5A (1); [1]): 0.4539
Array Heatmap signal, KDM4C (TTP) (KDM4C (TTP); [1]): 0.4877
Array Heatmap signal, KDM5A (3) (KDM5A (3); [1]): 0.4757
Array Heatmap signal, PHF13 (PHF13; [1]): 0.6042
Array Heatmap signal, PHRF1 (RP) (PHRF1 (RP); [1]): 0.4811
Array Heatmap signal, PHF23 (PHF23; [1]): 0.5318
Array Heatmap signal, ING1 (ING1; [1]): 0.5877
Array Heatmap signal, ING3 (ING3; [1]): 0.4762
Array Heatmap signal, KDM7A (KDM7A; [1]): 0.3373
Array Heatmap signal, TAF3 (TAF3; [1]): 0.2594
Array Heatmap signal, CHD5 (PCC) (CHD5 (PCC); [1]): 0.767
Array Heatmap signal, RAG2 (RAG2; [1]): 0.2475
Array Heatmap signal, MORC3 (CW) (MORC3 (CW); [1]): 0.3856
Array Heatmap signal, SP140L (SP140L; [1]): 0.3582
Array Heatmap signal, KDM5B (1) (KDM5B (1); [1]): 0.6382
Array Heatmap signal, CHD4 (PPCC) (CHD4 (PPCC); [1]): 0.5886
